Measurements taken from patent US9233979B2, “Compounds that are ERK inhibitors” (Merck Sharp & Dohme Corp., priority 2012, dated 2016).

These compounds were tested against phosphorylated active hERK2 enzyme (Homo sapiens (Human), UniProt P28482) (assay: Active Human ERK2 (hERK2) Activity Assay (IMAP-FP)). Settings: Table 6, 0.5 nM hERK2, 30 μM ATP, 10 point titration, read-out: AERK2 IC50.
Format: biochemical
Summary of the method: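 IMAP detection beads in buffer with 24 mM NaCl stopped the reaction, and fluorescence polarization was read after 60 min binding.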

phosphorylated active hERK2 enzyme, sequence (P28482 whole entry): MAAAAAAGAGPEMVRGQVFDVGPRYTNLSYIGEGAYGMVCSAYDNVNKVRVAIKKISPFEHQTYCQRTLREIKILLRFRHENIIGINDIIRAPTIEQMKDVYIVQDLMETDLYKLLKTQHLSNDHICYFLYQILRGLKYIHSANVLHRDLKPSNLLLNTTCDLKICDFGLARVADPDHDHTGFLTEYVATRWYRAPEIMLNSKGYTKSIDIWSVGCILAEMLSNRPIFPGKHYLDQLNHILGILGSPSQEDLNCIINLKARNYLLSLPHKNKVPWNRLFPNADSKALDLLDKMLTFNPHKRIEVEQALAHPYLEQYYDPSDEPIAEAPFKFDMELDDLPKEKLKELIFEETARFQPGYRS

| IC50 [nM] | Compound |
| --- | --- |
| 4.6 | C[C@@H](NC(=O)Nc1cc2[nH]nc(NC(=O)c3ccco3)c2cn1)c1ccccc1 [Example 207, N-[6-({[(1R)-1-phenylethyl]-carbamoyl}amino)-1H-pyrazolo[4,3-c]pyridin-3-yl]-furan-2-carboxamide] |
| 27.8 | C[C@@H](NC(=O)Nc1cc2[nH]nc(NC(=O)CN(C)C)c2cn1)c1ccccc1 [Example 208] |
| 1.6 | CC(C)CC(=O)Nc1n[nH]c2cc(NC(=O)N[C@H](C)c3ccccc3)ncc12 [Example 209, 3-methyl-N-[6-({[(1R)-1-phenylethyl]-carbamoyl}amino)-1H-pyrazolo[4,3-c]pyridin-3-yl]-butanamide] |
| 2.8 | C[C@@H](NC(=O)Nc1cc2[nH]nc(NC(=O)CC3CCCC3)c2cn1)c1ccccc1 [Example 210, 2-cyclopentyl-N-[6-({[(1R)-1-phenylethyl]-carbamoyl}amino)-1H-pyrazolo[4,3-c]pyridin-3-yl]-acetamide] |
| 3.1 | C[C@@H](NC(=O)Nc1cc2[nH]nc(NC(=O)c3cccnc3)c2cn1)c1ccccc1 [Example 211, N-[6-({[(1R)-1-phenylethyl]-carbamoyl}amino)-1H-pyrazolo[4,3-c]pyridin-3-yl]-pyridine-3-carboxamide] |
| 11.7 | C[C@@H](NC(=O)Nc1cc2[nH]nc(NC(=O)c3ccccn3)c2cn1)c1ccccc1 [Example 212, N-[6-({[(1R)-1-phenylethyl]-carbamoyl}amino)-1H-pyrazolo[4,3-c]pyridin-3-yl]-pyridine-2-carboxamide] |
| 2.2 | C[C@@H](NC(=O)Nc1cc2[nH]nc(NCC3CCC3)c2cn1)c1ccccc1 [Example 213, 1-{3-[(cyclobutylmethyl)amino]-1H-pyrazolo[4,3-c]-pyridin-6-yl}-3-[(1R)-1-phenylethyl]urea] |
| 2.9 | C[C@@H](NC(=O)Nc1cc2[nH]nc(NC(=O)c3ccncc3)c2cn1)c1ccccc1 [Example 214, N-[6-({[(1R)-1-phenylethyl]-carbamoyl}amino)-1H-pyrazolo[4,3-c]pyridin-3-yl]-pyridine-4-carboxamide] |
| 3.9 | C[C@@H](NC(=O)Nc1cc2[nH]nc(NC(=O)C(C)(C)C)c2cn1)c1ccccc1 [Example 215, 2,2-dimethyl-N-[6-({[(1R)-1-phenylethyl]-carbamoyl}amino)-1H-pyrazolo[4,3-c]pyridin-3-yl]-propanamide] |
| 12 | C[C@@H](NC(=O)Nc1cc2[nH]nc(NC3CC(N)C3)c2cn1)c1ccccc1 (stereo partly drawn) [Example 216, 1-{3-[(3-amino-cyclobutyl)amino]-1H-pyrazolo[4,3-c]pyridin-6-yl}-3-[(1R)-1-phenylethyl]urea] |
| 47.7 | C[C@@H](NC(=O)Nc1cc2[nH]nc(NC(=O)OC(C)(C)C)c2cn1)c1ccccc1 [Example 217, tert-butyl [6-({[(1R)-1-phenylethyl}-carbamoyl}amino)-1H-pyrazolo[4,3-c]pyridin-3-yl}-carbamate] |
| 25.1 | CC(C)NC(=O)Nc1n[nH]c2cc(NC(=O)N[C@H](C)c3ccccc3)ncc12 [Example 218, 1-(1-methylethyl)-3-[6-({[(1R)-1-phenylethyl]-carbamoyl}amino)-1H-pyrazolo[4,3-c]pyridin-3-yl]urea] |
| 32.5 | CC(C)COC(=O)Nc1n[nH]c2cc(NC(=O)N[C@H](C)c3ccccc3)ncc12 [Example 219, 2-methylpropyl [6-({[(1R)-1-phenylethyl}-carbamoyl}amino)-1H-pyrazolo[4,3-c]pyridin-3-yl]-carbamate] |
| 354 | COC(=O)Nc1n[nH]c2cc(NC(=O)N[C@H](C)c3ccccc3)ncc12 [Example 220, (R)-methyl (6-(3-(1-phenylethyl)ureido)-1H-pyrazolo[4,3-c]pyridin-3-yl)carbamate] |
| 6.6 | COCCOC(=O)Nc1n[nH]c2cc(NC(=O)N[C@H](C)c3ccccc3)ncc12 [Example 221, 2-methoxyethyl [6-({[(1R)-1-phenyl-ethyl]carbamoyl}-amino)-1H-pyrazolo[4,3-c]-pyridin-3-yl]-carbamate] |
